This passage reports EC50 results from publication PMC6876247 (Proceedings of the National Academy of Sciences of the …, 2019).

This assay has as its target T1, GPR43 (Mus musculus, UniProt Q8VCK6).
T1 sequence (Q8VCK6 1-330): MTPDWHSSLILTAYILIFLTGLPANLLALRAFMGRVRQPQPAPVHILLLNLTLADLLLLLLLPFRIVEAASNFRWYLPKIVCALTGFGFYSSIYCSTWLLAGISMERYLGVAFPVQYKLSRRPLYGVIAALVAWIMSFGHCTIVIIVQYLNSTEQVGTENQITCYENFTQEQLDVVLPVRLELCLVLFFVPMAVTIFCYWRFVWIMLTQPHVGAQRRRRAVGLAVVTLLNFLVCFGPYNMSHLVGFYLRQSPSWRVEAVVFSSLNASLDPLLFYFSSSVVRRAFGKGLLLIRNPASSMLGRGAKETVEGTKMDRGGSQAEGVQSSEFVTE
In kind it is cell-based.

In general, EC50 refers to the concentration that produces a half-maximal response.

`CC(=O)CC(=O)O` [acetoacetate] had a 50% effective concentration (EC50) of 760 µM.
